{"source": "patent US20220031849A1", "about": "“NANOPARTICLE ENCAPSULATION TO TARGET G PROTEIN-COUPLED RECEPTORS IN ENDOSOMES” (TAKEDA PHARMACEUTICAL COMPANY LIMITED, priority 2018, published 2022)", "key": {"[1]": {"tested_on": "HEK-293 cells", "assay": "Uptake and disassembly of Coumarin 153 loaded nanoparticles", "type": "cell-based", "conditions": "30 min pre-incubation with inhibitor", "from_the_text": "The uptake and disassembly of DIPMA nanoparticles loaded with Coumarin153 (DIPMA-CO), which emits in an aqueous environment but not in the hydrophobic core, were examined by high content imaging (confocal microscopy).\nUptake and disassembly of nanoparticles in HEK-293 cells. Coumarin 153 is a solvatochromic dye that fluoresces only in polar solvents, allowing detection of the release of Coumarin loaded in the core of nanoparticles observed as the appearance of Coumarin fluorescence in intact cells. nanoparticles were self-assembled using 0.5 mg of Coumarin 153 per mg of DIPMA polymer (DIPMA-CO). HEK-293 cells were pre-incubated for 30 min with vehicle (Hank's Balanced Salt Solution, HBSS), dynamin inhibitor (Dyngo4a, Dy4, 30 μM), clathrin inhibitor (Pitstop, PS2, 30 μM), vacuolar H^+ATPase inhibitor (Bafilomycin A1, BFA, 1 μM) or NH4Cl (20 mM) to alkalinize endosomes. Images were obtained with a Leica SP8 confocal microscope using HCX PL APO 63× (NA […]) oil objective. Images were taken every 10 see for 30 min, where the first 5 readings correspond to baseline images prior the addition of DIPMA-CO nanoparticles (20 μg/mL). All images were analyzed using Fiji."}, "[2]": {"tested_on": "NK1R-positive lamina I neurons", "assay": "Cell-attached patch clamp of SP-induced excitation in rat spinal cord slices", "type": "cell-based", "conditions": "100 nM AP preincubation, washed; SP 1 μM, 2 min", "description": "The firing time was determined as the duration of the response to last action potential."}, "[3]": {"tested_on": "CFA-evoked mechanical hyperalgesia in mice", "assay": "Complete Freund's adjuvant-evoked mechanical hyperalgesia, von Frey filaments", "type": "in vivo", "conditions": "for Inhibition of CFA hyperalgesia at 1.5 h: 5 μl i.t., 48 h after CFA"}, "[4]": {"tested_on": "capsaicin-evoked mechanical allodynia in mice", "assay": "Capsaicin-evoked mechanical allodynia, von Frey filaments", "type": "in vivo", "conditions": "for Time at which the effect is lost / not detected: i.t.", "description": "However, the same behaviour on the decay of the effect was observed.\nAP, nanoparticles or vehicle (5 μl) was administered by intrathecal injection to mice 30 min before intraplantar injection to the hind paw of capsaicin, which activates TRPV1 to cause acute allodynia and neurogenic inflammation. Withdrawal responses to stimulation of the plantar surface of the injected hindpaw with calibrated von Frey filaments (VFF) were measured before and after capsaicin. In mice receiving vehicle or DIPMA-empty nanoparticles, capsaicin decreased the VFF threshold from 0.5-4 h, consistent with mechanical allodynia, which returned to baseline after 24 h (FIG. 18B).\nDrug administration. Mice. […] Rats. […] Treatments were administered 10 days after sural nerve transection.\nAcute pain. Capsaicin (CAP, 5 μg) or vehicle (0.9% NaCl) was administered by subcutaneous intraplantar (i.pl.) injection (10 μL) into the left hindpaw of sedated mice (2% isoflurane) 30 min after i.t. injection of drugs.\nMechanical allodynia and hyperalgesia. Mechanical nociception was assessed by measuring withdrawal thresholds to stimulation of the plantar surfaces of the ipsilateral and contralateral hindpaws with calibrated von Frey filaments (VFF). Prior to experiments, mice were acclimatized to the experimental apparatus and environment for 2 h on 2 successive days. VFF withdrawal thresholds were measured in triplicate to establish a baseline for each mouse. For the CAP model, VFF withdrawal thresholds were measured at 30 min intervals for the first 2 h after i.t. drug administration, then at 60 min intervals for the next 2 h, and finally after 24 h. For the CFA model, VFF withdrawal thresholds were measured every 30 min for the first 3 h after i.t. drug administration, then at 60 min intervals for the next 5 h, and finally after 24 h. Results were normalized to the baseline withdrawal thresholds of each mouse."}, "[5]": {"tested_on": "C-fiber reflex and wind-up in SNS rats", "assay": "C-fiber-evoked nociceptive reflex and wind-up in SNS rats", "type": "in vivo", "conditions": "10 μl, 1 μM intrathecal"}, "[6]": {"tested_on": "SNS-evoked mechanical hyperalgesia in rats", "assay": "Sural nerve spared (SNS) mechanical hyperalgesia, Randall-Selitto", "type": "in vivo"}, "[7]": {"tested_on": "chronic pain model in rats", "assay": "Chronic pain model by ligation of the sciatic nerve, Randall-Selitto (Example 10)", "type": "in vivo", "conditions": "300 nM aprepitant, i.t. 10 μL", "from_the_text": "The chronic pain model was induced by ligation of the sciatic nerve, allowing sensitisation to pain (allodynia, hyperalgesia) to develop for 10 days. Sensitisation was confirmed measuring baseline (pre-surgery) and post-surgery paw withdrawal using a Randall-Selitto electronic algesimeter (Eva Santos-Nogueira, et al. J Neurotrauma. 2012, 29(5): 898-904). […] As is evident, aprepitant-loaded nanoparticles provide greater analgesia and longer lasting effects."}, "[8]": {"tested_on": "CFA-induced mechanical hyperalgesia", "conditions": "Proc. Natl. Acad. Sci. USA. 114(46):12309-12314; cited from earlier work"}}, "note": "Ends that are not written are not given here."}
{"compound": "CO/C1=C\\C(C)=C\\[C@@H](C)[C@@H](O)[C@@H](C)C/C(C)=C/C=C/[C@H](OC)[C@@H]([C@@H](C)[C@@H](O)[C@H](C)[C@@]2(O)C[C@@H](O)[C@H](C)[C@@H](C(C)C)O2)OC1=O", "note": "[Bafilomycin A1]", "values": [{"measurement": "Effect of inhibitor on cellular fluorescence of DIPMA-CO nanoparticles", "setting": "[1]", "result": "suppressed fluorescence"}, {"measurement": "Effect of inhibitor on cellular fluorescence of DIPMA-CO nanoparticles", "setting": "[1]; listed as Bafilomycin A", "result": "inhibited the accumulation of Coumarin 153 cellular fluorescence"}]}
{"compound": "O=C(N/N=C/c1cc(O)c(O)cc1O)c1cc2ccccc2cc1O", "note": "[Dyngo4a]", "values": [{"measurement": "Effect of inhibitor on cellular fluorescence of DIPMA-CO nanoparticles", "setting": "[1]", "result": "inhibited the accumulation of Coumarin 153 cellular fluorescence"}]}
{"compound": "Cl.N", "note": "[NH4Cl]", "values": [{"measurement": "Effect of inhibitor on cellular fluorescence of DIPMA-CO nanoparticles", "setting": "[1]", "result": "suppressed fluorescence"}]}
{"compound": "O=C1NC(=NS(=O)(=O)c2cccc3ccccc23)S/C1=C\\c1ccc(Br)cc1", "note": "[PitStop2]", "values": [{"measurement": "Effect of inhibitor on cellular fluorescence of DIPMA-CO nanoparticles", "setting": "[1]", "result": "inhibited the accumulation of Coumarin 153 cellular fluorescence"}]}
{"compound": "C[C@@H](O[C@H]1OCCN(Cc2nc(=O)[nH][nH]2)[C@H]1c1ccc(F)cc1)c1cc(C(F)(F)F)cc(C(F)(F)F)c1", "note": "[aprepitant, 5-([(2R,3S)-2-((R)-1-[3,5-Bis(trifluoromethyl)phenyl]ethoxy)-3-(4-fluorophenyl)morpholino]methyl)-1H-1,2,4-triazol-3(2H)-one]", "values": [{"measurement": "Effect on SP-induced firing of spinal neurons", "setting": "[2]", "result": "did not affect the onset, rate or duration of SP-induced firing"}, {"measurement": "Inhibition of CFA hyperalgesia at 1.5 h", "setting": "[3]; 100 nM AP", "result": "30±6", "unit": "%"}, {"measurement": "Inhibition of CFA hyperalgesia at 1.5 h", "setting": "[3]; 300 nM AP", "result": "47±3", "unit": "%"}, {"measurement": "Duration of reversal of hyperalgesia", "setting": "[3]; free AP 100 or 300 nM, DIPMA-AP 100 nM AP, i.t.", "result": "2 to 3", "unit": "h"}, {"measurement": "Inhibition of capsaicin-evoked allodynia at 1 h", "setting": "[4]; 5 μl i.t., 100 nM AP, 30 min before capsaicin", "result": "16±4", "unit": "%"}, {"measurement": "Time at which the effect is lost / not detected", "setting": "[4]; 100 nM AP", "result": 3, "unit": "h"}, {"measurement": "Time at which the effect is lost / not detected", "setting": "[4]; 100 nM AP, listed as AP", "result": 1.5, "unit": "h"}, {"measurement": "Analgesia on the first hour", "setting": "[4]; single i.t. dose 30 minutes prior to capsaicin (Example 9)", "result": 30, "unit": "%"}, {"measurement": "Effect on C-reflex", "setting": "[5]", "result": "decreased the C-reflex, but only at 30 min"}, {"measurement": "Effect on wind-up", "setting": "[5]", "result": "did not affect wind-up"}, {"measurement": "Effect on withdrawal threshold", "setting": "[6]; 10 μl i.t., 100 nM, 10 days after SNS", "result": "did not modify withdrawal threshold"}, {"measurement": "Maximum inhibition of hyperalgesia, after 1 h", "setting": "[6]; 10 μl i.t., 300 nM", "result": "40±2", "unit": "%"}, {"measurement": "Time of return to baseline", "setting": "[6]; i.t., 300 nM", "result": 2.5, "unit": "h"}, {"measurement": "Inhibition of hyperalgesia after 1 h", "setting": "[6]; i.t., 1 μM", "result": "75±4", "unit": "%"}, {"measurement": "Time of return to baseline", "setting": "[6]; i.t., 1 μM", "result": 3, "unit": "h"}, {"measurement": "Duration of effect", "setting": "[7]", "result": 2, "unit": "h"}, {"measurement": "Improvement in pressure, Randall-Selitto", "setting": "[7]", "result": 20, "unit": "g"}, {"measurement": "Pain recovery", "setting": "[7]", "result": "~25", "unit": "%"}]}
{"compound": "CN1CC[C@]23c4c5ccc(O)c4O[C@H]2[C@@H](O)C=C[C@H]3[C@H]1C5", "note": "[morphine]", "values": [{"measurement": "Effect on mechanical hyperalgesia after 0.5 h", "setting": "[3]; 3 mg/kg, i.p.", "result": "fully reversed the mechanical hyperalgesia"}, {"measurement": "Time at which the effect waned to baseline", "setting": "[3]; 3 mg/kg, i.p.", "result": 3, "unit": "h"}, {"measurement": "Duration of full reversal of hyperalgesia", "setting": "[6]; morphine", "result": 2, "unit": "h"}, {"measurement": "Time after which the effect was absent", "setting": "[6]; morphine", "result": 2.5, "unit": "h"}]}
{"compound": "CGRP8-37-Chol: cholestanol conjugate of CGRP8-37 (VTHRLAGLLSRSGGVVKNNFVPTNVGSKAF; ends and bridges not checked; also: cholestanol conjugate; UniProt P06881 90-119, looked up, fragment)", "values": [{"measurement": "Reversal of mechanical hyperalgesia", "setting": "[8]", "result": "~20", "unit": "%"}]}
{"compound": "CGRP8-37: a membrane-impermeant CLR antagonist (VTHRLAGLLSRSGGVVKNNFVPTNVGSKAF; ends and bridges not checked; UniProt P06881 90-119, looked up, fragment)", "values": [{"measurement": "Reversal of mechanical hyperalgesia", "setting": "[8]", "result": "not"}]}
